From patent publication US20210238170A1, “5,5-Difluoro- and 5-Fluoro-5-Methyl-C-Glycoside Derivatives Useful As Dual SGLT1 / SGLT2 Modulators” (Janssen Pharmaceutica NV, priority 2018, published 2021)
Read-outs that look alike come from different tables or passages of the source.

Experiments:
[1] = target: T1, human SGLT1 (Homo sapiens, UniProt P13866); assay: SGLT1 in vitro assay: Na-dependent 14C-AMG uptake in CHO-K1 cells stably expressing human SGLT1; format: cell-based; conditions: for inhibition at 0.3 µM: read-out: SGLT1 % Inh @ 0.3 μM
T1 construct: expressed in transfected cells
T1 sequence (P13866 1-664): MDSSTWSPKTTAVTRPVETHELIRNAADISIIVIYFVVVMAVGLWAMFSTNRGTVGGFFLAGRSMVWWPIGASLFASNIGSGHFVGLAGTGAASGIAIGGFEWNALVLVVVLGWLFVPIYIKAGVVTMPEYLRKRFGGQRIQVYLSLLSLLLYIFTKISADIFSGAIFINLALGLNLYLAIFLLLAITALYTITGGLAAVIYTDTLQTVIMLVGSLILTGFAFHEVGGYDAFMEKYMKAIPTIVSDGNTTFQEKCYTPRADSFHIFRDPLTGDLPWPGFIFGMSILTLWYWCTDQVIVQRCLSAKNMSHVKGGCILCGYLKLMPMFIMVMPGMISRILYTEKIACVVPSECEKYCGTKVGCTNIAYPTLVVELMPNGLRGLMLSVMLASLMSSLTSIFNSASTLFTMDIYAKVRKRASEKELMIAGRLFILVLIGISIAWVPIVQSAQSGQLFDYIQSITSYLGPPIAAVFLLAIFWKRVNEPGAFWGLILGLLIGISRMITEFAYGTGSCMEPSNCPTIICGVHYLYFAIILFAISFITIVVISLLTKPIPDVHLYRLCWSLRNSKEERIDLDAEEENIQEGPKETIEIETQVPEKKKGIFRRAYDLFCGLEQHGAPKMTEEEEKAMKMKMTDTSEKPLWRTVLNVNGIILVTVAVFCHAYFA
Experimental: (§1) Biological Example 1: SGLT1 and SGLT2 In Vitro Assays
(§2) The ability of the compounds of formula (I) of the present invention to treat an SGLT-mediated condition was determined using the following procedures:
(§3) SGLT1 and SGLT2 were cloned in form of cDNA from human small intestine (Genbank M24847), and from human kidney (Genbank M95549), respectively. Subsequently, each full cDNA was subcloned into pcDNA with each construct's integrity verified through follow-on sequencing. To generate CHO-K1 cells that stably express human SGLT1 or human SGLT2, CHO-K1 cells were transfected using DMRIE-C reagent (Life Technologies, Gaithersburg, Md.). Transfected cells were then selected in the presence of 500 μg/ml of the Geneticin (G418 Cellgro Catalog No. 30234-CI)
(§4) Individual clones were then characterized using the following cell-based assay for sodium-dependent glucose transport:
(§5) Inhibition of SGLT1 and SGLT2 activity was assessed in CHO K1 cells stably expressing either human SGLT1 or SGLT2, using the SGLT specific glucose analog methyl-glucopyranoside (Sigma Catalog No. M-9376). Cells were plated (45,000 cells/well) in white wall 96-well plates (COSTAR, Cat #3903) for 24 hours in growth medium, then a final concentration of 10 mM Na-Butyrate (ALDRICH Cat #30341-0) was added. The cells were incubated for 24 hours. On the day of the assay, cells were rinsed and treated with test compounds (at concentrations of 0.001 μM to 10 μM) in assay buffer (50 mM HEPES, 20 mM Tris base, 5 mM KCl, 1 mM MgCl2, 1 mM CaCl2 and 137 mM NaCl, pH 7.4) for 10 minutes. Cells were then incubated with ^14C-a-methyl-d-glucopyranoside (AMG, Amersham Catalog No. CFB 76), using 0.07 μCi per well in 500 µM AMG final concentration. The cells were incubated for 2 hours at 37° C. with 5% CO2 and washed two times with ice-cold Phosphate Buffer Solution (CELLGRO Catalog No. 21030-CV). The cells were then solubilized by adding 60 μl of MICROSCINT™ 20 and the Na-dependent ^14C-AMG uptake was quantified by measuring radioactivity. Plates were counted in a TopCount (Packard, Meriden, Conn.)
(§6) Representative compounds of the present invention were tested according to the procedures as described in Biological Example 1 and 2 above, with results as listed in Table 5, below. Results are reported as the %-inhibition or IC50 value. Variability for the functional assay was typically within 20%.

[2] = target: T2, human SGLT2 (Homo sapiens, UniProt P31639); assay: SGLT2 in vitro assay: Na-dependent 14C-AMG uptake in CHO-K1 cells stably expressing human SGLT2; format: cell-based; conditions: for inhibition at 0.3 µM: read-out: SGLT2 % Inh @ 0.3 μM
T2 construct: expressed in transfected cells
T2 sequence (P31639 1-672): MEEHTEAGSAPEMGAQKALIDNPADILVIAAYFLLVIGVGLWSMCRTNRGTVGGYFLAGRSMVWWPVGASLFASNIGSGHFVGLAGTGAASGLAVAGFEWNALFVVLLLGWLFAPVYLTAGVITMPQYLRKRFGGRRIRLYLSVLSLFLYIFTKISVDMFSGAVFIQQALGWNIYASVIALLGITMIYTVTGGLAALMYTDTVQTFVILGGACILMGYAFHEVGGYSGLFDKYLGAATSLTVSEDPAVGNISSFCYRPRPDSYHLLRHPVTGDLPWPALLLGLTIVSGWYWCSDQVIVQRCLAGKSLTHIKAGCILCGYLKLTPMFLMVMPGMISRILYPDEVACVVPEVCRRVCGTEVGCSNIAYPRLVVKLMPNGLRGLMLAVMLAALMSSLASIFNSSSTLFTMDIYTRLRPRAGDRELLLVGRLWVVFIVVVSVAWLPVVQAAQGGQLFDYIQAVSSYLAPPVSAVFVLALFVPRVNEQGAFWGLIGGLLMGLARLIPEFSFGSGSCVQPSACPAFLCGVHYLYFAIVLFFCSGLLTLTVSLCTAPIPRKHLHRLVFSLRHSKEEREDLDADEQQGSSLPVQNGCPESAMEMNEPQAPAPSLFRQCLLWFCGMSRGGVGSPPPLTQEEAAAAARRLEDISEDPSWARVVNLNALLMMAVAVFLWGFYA
Experimental: as §1, §2, §3, §4, §5, §6

[3] = @ 0.3 μM, CHO-K1 cells stably expressing human SGLT1, 14C-AMG uptake
[4] = @ 0.3 μM, CHO-K1 cells stably expressing human SGLT2, 14C-AMG uptake
[5] = CHO-K1 cells stably expressing human SGLT1, 14C-AMG uptake, compounds of formula (I) where R0 is fluoro
[6] = CHO-K1 cells stably expressing human SGLT2, 14C-AMG uptake, compounds of formula (I) where R0 is fluoro
[7] = 0.3 μM, CHO-K1 cells expressing human SGLT1
[8] = 0.3 μM, CHO-K1 cells expressing human SGLT2

Row | Structure (SMILES) | SGLT1 % Inh @ 0.3 μM [1, 3] [%] | SGLT2 % Inh @ 0.3 μM [2, 4] [%] | inhibition at 0.3 µM [1, 3] [%] | IC50 [1, 5] [nM] | inhibition at 0.3 µM [2, 4] [%] | IC50 [2, 6] [nM] | also measured
1 | CCc1ccc(Cc2cc([C@@H]3O[C@H](CO)C(F)(F)[C@H](O)[C@H]3O)c(OC)cc2Cl)cc1 [Compound 135] | 16.5 | 88.0 |  |  |  |  | 
2 | CCc1ccc(Cc2cc([C@@H]3O[C@H](CO)C(F)(F)[C@H](O)[C@H]3O)c(OC)cc2OC)cc1 [Compound 153] |  |  | 48.7 | 591 | 88.1 | 6.7 | 
3 | COc1cc(Cl)c(Cc2ccc(C)s2)cc1[C@@H]1O[C@H](CO)C(F)(F)[C@H](O)[C@H]1O [Compound 165] |  |  | 54.7 | 40 | 73.2 | 0.7 | 
4 | Cc1c(Cc2ccc3c(c2)CCCO3)cc([C@@H]2O[C@H](CO)C(F)(F)[C@H](O)[C@H]2O)c2c1CCO2 [Compound 103] | 26.3 | 94.7 |  |  |  |  | 
5 | CCOc1ccc(Cc2cc([C@@H]3O[C@H](CO)C(F)(F)[C@H](O)[C@H]3O)c(OC)cc2C)cc1 [Compound 49] | 23.2 | 79.2 |  |  |  |  | 
6 | Cc1cc(O)c([C@@H]2O[C@H](CO)[C@@](C)(F)[C@H](O)[C@H]2O)cc1Cc1ccc(OCF)cc1 (stereo in doubt) [Compound 23, (2S,3R,4R,5S,6R)-5-fluoro-2-(5-(4-(fluoromethoxy)benzyl)-2-hydroxy-4-methylphenyl)-6-(hydroxymethyl)-5-methyl-tetrahydro-2H-pyran-3,4-diol] |  |  |  |  |  |  | inhibition at 0.3 µM [1, 7]: 54%; IC50 ([1]; CHO-K1 cells expressing human SGLT1, 14C-AMG uptake): 319 nM; inhibition at 0.3 µM [2, 8]: 88%; IC50 ([2]; CHO-K1 cells expressing human SGLT2, 14C-AMG uptake): 2.8 nM
7 | COc1cc(Cl)c(Cc2ccc3c(c2)OCC3)cc1[C@@H]1O[C@H](CO)C(F)(F)[C@H](O)[C@H]1O [Compound 115] |  |  | 50.8 | 326 | 86.8 | 0.5 | 
8 | OC[C@H]1O[C@@H](c2cc3c(c(Cc4ccc(OCF)cc4)c2)OCC3)[C@H](O)[C@@H](O)C1(F)F [Compound 146] | 41.9 | 76.8 |  |  |  |  | 
9 | OC[C@H]1O[C@@H](c2cc(Cc3ccc(Cl)cc3)c(Cl)cc2O)[C@H](O)[C@@H](O)C1(F)F [Compound 163, (2S,3R,4R,6R)-2-(4-chloro-5-(4-chlorobenzyl)-2-hydroxyphenyl)-5,5-difluoro-6-(hydroxymethyl)-tetrahydro-2H-pyran-3,4-diol] |  |  | 73.1 | 25 | 64.4 | 1.2 | 
10 | OC[C@H]1O[C@@H](c2cc(Cc3ccc([C@@H]4CCOC4)cc3)c(Cl)cc2O)[C@H](O)[C@@H](O)C1(F)F [Compound 46] | 18.4 | 89.0 |  |  |  |  | 
11 | COc1cc(OC)c(C2OC(CO)C(C)(F)C(O)C2O)cc1Cc1ccc2c(c1)CCCO2 (centres unmarked) [Compound 4] |  |  |  |  |  |  | SGLT1 % Inh @ 0.3 μM [1, 7]: 0.9%; SGLT2 % Inh @ 0.3 μM [2, 8]: 73.4%
